Assay results as given in the METLIN SMRT retention time set (Domingo-Almenara et al. 2019).

Assay: gradient 5% acetonitrile 3 min, to 50% in 2 min, to 85% in 15 min, held 3 min, 100 µL/min
Conditions: column: Zorbax Extend-C18 2.1 x 50 mm; eluents: water / acetonitrile, 0.1% formic acid
Method in brief: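 Using water and acetonitrile that each contained 0.1% formic acid, mixtures of ~100 pure standards were separated at 100 μL/min on a Zorbax Extend-C18 column (2.1 × 50 mm, 1.8 μm). The HPLC fed a quadrupole time-of-flight mass spectrometer working in positive and negative ionization mode, with dead and dwell volumes of 40 μL and 900 μL. Data were acquired over 3 months. Retention time was read from computationally picked adduct peaks after manual inspection of each.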

Structure (SMILES) | RP-LC retention time [s]
NS(=O)(=O)c1ccc(NC(=O)Cn2cnc(-c3ccccc3)cc2=O)cc1 | 638
COc1ccc(-c2cn3c(CC(=O)Nc4ccc(Cl)cc4)csc3n2)cc1OC | 799
CCc1ccc(N2C(=O)CN(Cc3ccc(OC)cc3)[C@H]3CS(=O)(=O)C[C@H]32)cc1 | 866
CCC1CN2C=Nc3oc(C)c(C(=O)NCCc4ccc(OC)c(OC)c4)c3C2=N1 (centres undefined) | 645
CCN1c2ccc(F)cc2C(=O)NC12CCN(C(=O)Cc1ccccc1Cl)CC2 | 863
CCCN1C(=O)COc2ccc(-c3noc(-c4ccccc4)n3)cc21 | 1210
CC(C)CCN1CCC(N2CCN(S(=O)(=O)c3ccccc3Cl)CC2)C1=O (centres undefined) | 668
O=C(NC(=O)c1c(Cl)nc2sccn12)Nc1ccc(Cl)cc1 | 977
O=C(Nc1cccc(Br)c1)C1CCCN(c2ncc(-c3ccc(F)cc3)cn2)C1 (centres undefined) | 1250
CC(C)(C)C1(C)NN=C2Sc3ccccc3N21 (centres undefined) | 1030
Cc1cc(C)n2c(Nc3ccc(C(C)C)cc3)c(-c3ccccc3)nc2n1 | 828
COc1ccc(OC)c(NS(=O)(=O)c2cc(-c3nc(C(C)(C)C)cs3)cs2)c1 | 1250
Cc1oc(C2CCN(S(=O)(=O)c3ccc(C(C)C)cc3)CC2)nc1C(=O)N(C)C | 966
CCOC(=O)c1c(C)c(CCC(=O)N2CCN(C(=O)c3ccco3)CC2)n(CC)c1C | 778
COc1ccc(-c2csc(Nc3ccccn3)n2)cc1OC | 761
CCOc1ccc(C(=O)NC2CCN(c3cc(-c4ccccc4)[nH]n3)C2)cc1 (centres undefined) | 741
O=C(CN1C(=O)CCCc2cc(S(=O)(=O)N3CCCCC3)ccc21)NCc1ccc(Cl)cc1 | 926
Cc1cc(=O)n(CC(=O)Nc2ccc(F)c(F)c2)cn1 | 620
Cc1ccc(C)c(-c2nnc(NC(=O)c3ccc4c(c3)OCCO4)o2)c1 | 921
COC[C@@H]1CN(C(=O)c2cc3cc(Cl)ccc3[nH]2)C[C@H]1C(N)=O | 672
Cn1ncc2c3ccccc3n(CCCC(=O)NCc3ccccc3)c2c1=O | 810
COc1ccc(-n2ncc3c(=O)n(Cc4nc(-c5ccccc5OC)no4)cnc32)cc1 | 902

Structure (SMILES) | RP-LC retention time [s]
O=C(Cc1nnc(-c2ccc3ncccc3c2)o1)NCc1ccccc1 | 672
Cc1cc2nn(CC(=O)Nc3cccc(Cl)c3)c(=O)n2c(N2CCCC2)n1 | 813
O=C(Cn1nc2c(N3CCCCCC3)nccn2c1=O)Nc1ccc(F)c(Cl)c1 | 786
Cc1nc(-c2cccnc2)nc2c1CCC(=O)N2Cc1ccccn1 | 566
COc1cc(Br)ccc1NC(=O)C1CCCN(c2nc3ccccc3nc2OC)C1 (centres undefined) | 1330
CCNc1nn2ccccc2c1/C=C(/C#N)C(=O)OCC | 936
Cc1ccc(-c2noc(Cn3ncn4nc(-c5ccccc5Cl)cc4c3=O)n2)cc1 | 1200
CC1=C(c2ccccc2)S(=O)(=O)N=C1N1CCCN(C(=O)Cn2ccnc2C)CC1 | 589
Cc1ccc(-c2[nH]ncc2CN2CCC3(CC2)CC(C)(O)CCO3)cc1 (centres undefined) | 597
COCCN1CCC2(CC1)CN(Cc1cc(Cl)ccc1F)Cc1ccccc1O2 | 778
Cc1ccc(-c2ccc(-n3nc(C)c(S(=O)(=O)NCc4ccccc4)c3C)nn2)cc1 | 1090
CCc1nnc(-c2ccc(=O)n(CC(=O)NCc3ccc(F)c(Cl)c3)c2)o1 | 713
COc1cccc2sc(N3CCN(c4ccccc4)CC3)nc12 | 996
CCCNC(=O)c1cn(-c2ncccc2-c2nc(C(C)(C)C)no2)cn1 | 768
COC(=O)CNC(=O)Nc1ccc2nc(-c3ccccc3)cc(OC)c2c1 | 629
COc1cc(OC)cc(C(=O)N2CCN(c3cc(C)n4c(C)nnc4n3)CC2)c1 | 601
O=C(CCC1CCCN(S(=O)(=O)c2ccc(F)cc2)C1)NC1CC1 (centres undefined) | 764
Cc1cc(C)cc(Oc2nccn3c(=O)n(CC(=O)Nc4ccccc4)nc23)c1 | 922
O=C(C1=NN(Cc2ccc(F)cc2)c2ccccc2S1(=O)=O)N1CCOCC1 | 761
CCNC(=O)N1CCCN(S(=O)(=O)CC)CC1 | 582
O=C(c1ccc(Br)cc1)N1CCc2nc[nH]c2C1 | 578
CCOC(=O)c1noc2ncnc(N3CCN(c4ccccc4)CC3)c12 | 968
